ChEMBL document CHEMBL4819121, “Fused chromeno and quinolino[1,8]naphthyridines: Synthesis and biological evaluation as topoisomerase I inhibitors and antiproliferative agents” (Bioorg Med Chem, 2021)
Active and inactive are the calls of the source. No cut-off for these calls is given here.

Legend:
[1] = molecular target: T1, DNA topoisomerase 1 (Homo sapiens) (UniProt P11387); assay: Poison activity at recombinant human topoisomerase 1 expressed in yeast TopI null strain RS190 assessed as increase in nicked plasmid DNA at 100 uM using supercoiled pUC18 plasmid DNA as substrate incubated for 15 to 180 secs by Ethidium bromide staining based agarose gel electrophoresis analysis; details: time 15-180 sec
T1 sequence (whole entry): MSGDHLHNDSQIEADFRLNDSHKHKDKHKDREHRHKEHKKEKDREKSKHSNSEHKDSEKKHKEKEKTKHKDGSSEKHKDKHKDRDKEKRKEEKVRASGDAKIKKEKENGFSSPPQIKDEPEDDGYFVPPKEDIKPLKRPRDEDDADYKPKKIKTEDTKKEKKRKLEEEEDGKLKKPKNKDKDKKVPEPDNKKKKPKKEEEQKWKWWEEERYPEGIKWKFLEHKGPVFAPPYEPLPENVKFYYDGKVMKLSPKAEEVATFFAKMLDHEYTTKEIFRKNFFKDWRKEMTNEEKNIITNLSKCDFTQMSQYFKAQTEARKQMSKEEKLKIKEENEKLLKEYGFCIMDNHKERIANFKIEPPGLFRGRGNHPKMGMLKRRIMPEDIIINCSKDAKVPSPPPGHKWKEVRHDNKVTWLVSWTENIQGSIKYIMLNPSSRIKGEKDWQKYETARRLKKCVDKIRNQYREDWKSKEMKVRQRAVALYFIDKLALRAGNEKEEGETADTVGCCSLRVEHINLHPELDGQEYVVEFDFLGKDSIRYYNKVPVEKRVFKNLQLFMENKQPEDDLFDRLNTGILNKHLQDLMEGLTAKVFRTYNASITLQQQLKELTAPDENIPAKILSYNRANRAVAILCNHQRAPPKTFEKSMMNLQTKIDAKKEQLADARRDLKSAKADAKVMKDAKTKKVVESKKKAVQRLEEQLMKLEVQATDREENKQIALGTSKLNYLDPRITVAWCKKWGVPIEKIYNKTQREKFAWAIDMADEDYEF

[2] = system: MRC5; assay: Antiproliferative activity against human MRC5 cells assessed as cell growth inhibition measured after 48 hrs by CCK-8 assay; type: cell-based; details: MRC5, 48 h
[3] = system: SK-OV-3; assay: Antiproliferative activity against human SK-OV-3 cells assessed as cell growth inhibition measured after 48 hrs by CCK-8 assay; type: functional, cell-based; details: SK-OV-3, 48 h
[4] = molecular target: T1, DNA topoisomerase 1 (Homo sapiens); assay: Inhibition of recombinant human topoisomerase 1 expressed in yeast TopI null strain RS190 at 100 uM using negatively supercoiled pUC18 plasmid DNA as substrate incubated for 3 min by agarose gel electrophoresis method
[5] = molecular target: T1, DNA topoisomerase 1 (Homo sapiens); assay: Inhibition of recombinant human topoisomerase 1 expressed in yeast TopI null strain RS190 at 100 uM using negatively supercoiled pUC18 plasmid DNA as substrate incubated for 1 min by agarose gel electrophoresis method
[6] = molecular target: T1, DNA topoisomerase 1 (Homo sapiens); assay: Inhibition of recombinant human topoisomerase 1 expressed in yeast TopI null strain RS190 at 100 uM using negatively supercoiled pUC18 plasmid DNA as substrate incubated for 15 secs by agarose gel electrophoresis method; details: time 15.0 sec
[7] = system: A549; assay: Antiproliferative activity against human A549 cells assessed as cell growth inhibition measured after 48 hrs by CCK-8 assay; type: functional, cell-based; details: A549, 48 h

CC[C@@]1(O)C(=O)OCc2c1cc1n(c2=O)Cc2cc3ccccc3nc2-1
Activity [1]: Active

O=c1oc2ccc(F)cc2c2nc3ncccc3c(-c3ccccc3)c12
IC50 [2]: > 50 µM
IC50 [3]: > 50 µM
inhibition [4]: 4%
inhibition [5]: 4%
inhibition [6]: 5%
IC50 [7]: > 50 µM

Fc1ccc2c(c1)[C@H]1Nc3ncccc3[C@@H](c3ccccc3)[C@@H]1CO2
IC50 [2]: > 50 µM
IC50 [3]: > 50 µM
inhibition [4]: 1%
inhibition [5]: 14%
inhibition [6]: 14%
IC50 [7]: > 50 µM

COc1ccc(-c2c3c(nc4ncccc24)-c2ccccc2OC3)cc1
IC50 [2]: > 50 µM
IC50 [3]: > 50 µM
inhibition [4]: 6%
inhibition [5]: 11%
inhibition [6]: 11%
IC50 [7]: > 50 µM

O=C1Oc2ccccc2[C@H]2Nc3ncc(Br)cc3[C@@H](c3ccccc3)[C@H]12
IC50 [2]: > 50 µM
IC50 [3]: > 50 µM
inhibition [4]: 1%
inhibition [5]: 10%
inhibition [6]: 11%
IC50 [7]: > 50 µM

Fc1ccc2c(c1)-c1nc3ncccc3c(-c3ccccc3)c1CO2
IC50 [2]: > 50 µM
IC50 [3]: 38.1 µM
inhibition [4]: 11%
inhibition [5]: 40%
inhibition [6]: 41%
IC50 [7]: 31.2 µM

c1ccc([C@@H]2c3cccnc3N[C@@H]3c4ccccc4OC[C@@H]23)cc1
IC50 [2]: > 50 µM
IC50 [3]: 12.2 µM
inhibition [4]: 5%
inhibition [5]: 60%
inhibition [6]: 61%
IC50 [7]: 11.7 µM

O=c1oc2ccccc2c2nc3ncccc3c(-c3ccccc3)c12
IC50 [2]: > 50 µM
IC50 [3]: 1.78 µM
inhibition [4]: 51%
inhibition [5]: 75%
inhibition [6]: 75%
IC50 [7]: 1.23 µM

O=C1Oc2ccc(F)cc2[C@H]2Nc3ncccc3[C@@H](c3ccccc3)[C@H]12
IC50 [2]: > 50 µM
IC50 [3]: > 50 µM
inhibition [4]: 4%
inhibition [5]: 5%
inhibition [6]: 5%
IC50 [7]: > 50 µM

c1ccc(-c2c3c(nc4ncccc24)-c2ccccc2OC3)cc1
IC50 [2]: > 50 µM
IC50 [3]: > 50 µM
inhibition [4]: 2%
inhibition [5]: 9%
inhibition [6]: 10%
IC50 [7]: > 50 µM

Cc1ccc2c(c1)[C@H]1Nc3ncccc3[C@@H](c3ccccc3)[C@@H]1CO2
IC50 [2]: > 50 µM
IC50 [3]: > 50 µM
inhibition [4]: 1%
inhibition [5]: 15%
inhibition [6]: 21%
IC50 [7]: > 50 µM

Cc1ccc2c(c1)-c1nc3ncccc3c(-c3ccccc3)c1CO2
IC50 [2]: > 50 µM
IC50 [3]: > 50 µM
inhibition [4]: 1%
inhibition [5]: 1%
inhibition [6]: 26%
IC50 [7]: > 50 µM

Cc1ccc(S(=O)(=O)N2Cc3c(nc4ncc(Br)cc4c3-c3ccccc3)-c3ccccc32)cc1
IC50 [2]: > 50 µM
IC50 [3]: 12.2 µM
inhibition [4]: 95%
Activity [1]: Active
inhibition [5]: 98%
inhibition [6]: 98%
IC50 [7]: 10.5 µM

Cc1ccc(S(=O)(=O)N2C[C@H]3[C@H](c4ccccc4)c4cccnc4N[C@@H]3c3ccccc32)cc1
IC50 [2]: > 50 µM
IC50 [3]: 8.21 µM
inhibition [4]: 85%
Activity [1]: Active
inhibition [5]: 89%
inhibition [6]: 91%
IC50 [7]: 6.3 µM

O=c1oc2ccccc2c2nc3ncc(Br)cc3c(-c3ccccc3)c12
IC50 [2]: > 50 µM
IC50 [3]: > 50 µM
inhibition [4]: 5%
inhibition [5]: 15%
inhibition [6]: 21%
IC50 [7]: > 50 µM

Cc1ccc(S(=O)(=O)N2Cc3c(nc4ncccc4c3-c3ccccc3)-c3ccccc32)cc1
IC50 [2]: > 50 µM
IC50 [3]: 16.9 µM
inhibition [4]: 92%
inhibition [5]: 93%
inhibition [6]: 95%
IC50 [7]: 17.9 µM
